#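 Compound exposure: 48 hours, 5 concentrations, 96-well plates. GI50: concentration for 50% inhibition of growth. TGI marks complete inhibition of growth.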
# Tests used:
# Assay in all cases: NCI tumour cell line growth inhibition, 48 h
# BT-549 breast = system: BT-549 breast
# LOX IMVI melanoma = system: LOX IMVI melanoma
# SK-MEL-2 melanoma = system: SK-MEL-2 melanoma
# HOP-62 NSCLC = system: HOP-62 NSCLC
# SNB-19 CNS = system: SNB-19 CNS
# SNB-75 CNS = system: SNB-75 CNS
# ACHN renal = system: ACHN renal
# SK-MEL-28 melanoma = system: SK-MEL-28 melanoma
# CAKI-1 renal = system: CAKI-1 renal
# A549 NSCLC = system: A549 NSCLC
# KM12 colon = system: KM12 colon
# HCT-15 colon = system: HCT-15 colon
# CCRF-CEM leukemia = system: CCRF-CEM leukemia
# UACC-62 melanoma = system: UACC-62 melanoma
# NCI-H226 lung = system: NCI-H226 lung
# UO-31 renal = system: UO-31 renal
# UACC-257 melanoma = system: UACC-257 melanoma
# MDA-MB-435 = system: MDA-MB-435
# HT29 colon = system: HT29 colon
# COLO 205 colon = system: COLO 205 colon
# HOP-92 NSCLC = system: HOP-92 NSCLC
# K-562 leukemia = system: K-562 leukemia
# OVCAR-3 ovarian = system: OVCAR-3 ovarian
# SF-295 CNS = system: SF-295 CNS
# PC-3 prostate = system: PC-3 prostate
# HCC-2998 colon = system: HCC-2998 colon
# SF-539 CNS = system: SF-539 CNS
# SK-MEL-5 melanoma = system: SK-MEL-5 melanoma
# M14 melanoma = system: M14 melanoma
# A498 renal = system: A498 renal
# MOLT-4 leukemia = system: MOLT-4 leukemia
# U251 CNS = system: U251 CNS
# EKVX NSCLC = system: EKVX NSCLC
# T-47D breast = system: T-47D breast
# 786-0 renal = system: 786-0 renal
# OVCAR-5 ovarian = system: OVCAR-5 ovarian
# SR leukemia = system: SR leukemia
# SW-620 colon = system: SW-620 colon
# SK-OV-3 ovarian = system: SK-OV-3 ovarian
# NCI-H460 lung = system: NCI-H460 lung
# IGROV1 ovarian = system: IGROV1 ovarian
# NCI/ADR-RES ovarian = system: NCI/ADR-RES ovarian
# MCF7 breast = system: MCF7 breast
# SN12C renal = system: SN12C renal
# OVCAR-8 ovarian = system: OVCAR-8 ovarian
# RPMI-8226 leukemia = system: RPMI-8226 leukemia
# DU-145 prostate = system: DU-145 prostate
# NCI-H23 lung = system: NCI-H23 lung
# HCT-116 colon = system: HCT-116 colon
# NCI-H522 lung = system: NCI-H522 lung
structure (smiles),measurement,setting,value
O=C(c1ccc(Cl)cc1Cl)N(C(=O)N1CCC(c2ccccc2)CC1)c1ccccc1,TGI,BT-549 breast,> 100 µM
same,TGI,LOX IMVI melanoma,> 100 µM
same,TGI,SK-MEL-2 melanoma,> 100 µM
same,TGI,HOP-62 NSCLC,> 100 µM
same,TGI,SNB-19 CNS,> 100 µM
same,TGI,SNB-75 CNS,> 100 µM
same,TGI,ACHN renal,> 100 µM
same,TGI,SK-MEL-28 melanoma,> 100 µM
same,TGI,CAKI-1 renal,> 100 µM
same,TGI,A549 NSCLC,> 100 µM
same,TGI,KM12 colon,> 100 µM
same,TGI,HCT-15 colon,> 100 µM
same,TGI,CCRF-CEM leukemia,> 100 µM
same,TGI,UACC-62 melanoma,> 100 µM
same,TGI,NCI-H226 lung,> 100 µM
same,TGI,UO-31 renal,> 100 µM
same,TGI,UACC-257 melanoma,> 100 µM
same,TGI,MDA-MB-435,> 100 µM
same,TGI,HT29 colon,> 100 µM
same,TGI,COLO 205 colon,> 100 µM
same,TGI,HOP-92 NSCLC,> 100 µM
same,TGI,K-562 leukemia,> 100 µM
same,TGI,OVCAR-3 ovarian,> 100 µM
same,TGI,SF-295 CNS,> 100 µM
same,TGI,PC-3 prostate,> 100 µM
same,TGI,HCC-2998 colon,> 100 µM
same,TGI,SF-539 CNS,> 100 µM
same,TGI,SK-MEL-5 melanoma,> 100 µM
same,TGI,M14 melanoma,> 100 µM
same,TGI,A498 renal,> 100 µM
same,TGI,MOLT-4 leukemia,75 µM
same,TGI,U251 CNS,> 100 µM
same,TGI,EKVX NSCLC,> 100 µM
same,TGI,T-47D breast,> 100 µM
same,TGI,786-0 renal,> 100 µM
same,TGI,OVCAR-5 ovarian,> 100 µM
same,TGI,SR leukemia,> 100 µM
same,TGI,SW-620 colon,> 100 µM
same,TGI,SK-OV-3 ovarian,> 100 µM
same,TGI,NCI-H460 lung,> 100 µM
same,TGI,IGROV1 ovarian,> 100 µM
same,TGI,NCI/ADR-RES ovarian,> 100 µM
same,TGI,MCF7 breast,> 100 µM
same,TGI,SN12C renal,> 100 µM
same,TGI,OVCAR-8 ovarian,> 100 µM
same,TGI,RPMI-8226 leukemia,> 100 µM
same,TGI,DU-145 prostate,> 100 µM
same,TGI,NCI-H23 lung,> 100 µM
same,TGI,HCT-116 colon,> 100 µM
O=C1C2C(C(=O)N1c1ccc(OCc3ccccc3)cc1)C1c3ccccc3C2C2CCCCN21 (stereo not drawn),GI50,SNB-19 CNS,47.6 µM
same,GI50,SNB-75 CNS,61.4 µM
same,GI50,UO-31 renal,32.7 µM
same,GI50,HT29 colon,79.7 µM
same,GI50,COLO 205 colon,73.3 µM
same,GI50,K-562 leukemia,59.8 µM
same,GI50,U251 CNS,41.5 µM
same,GI50,NCI-H522 lung,53.5 µM
same,GI50,RPMI-8226 leukemia,64 µM

# Reference: PubChem BioAssay (NCI)
